Reference: patent publication US8785489B2, “Heteroaryl substituted indole compounds useful as MMP-13 inhibitors” (Boehringer Ingelheim International GmbH, priority 2008, dated 2014)

Molecular target: MMP13 (Homo sapiens (Human), UniProt P45452)
Experiment: EnzoLyte 520 Generic MMP Assay Kit, 5-FAM/QXL 520 FRET peptide substrate
Assay type: biochemical
Text: The EnzoLyte™ 520 Generic MMP Assay Kit (AnaSpec Inc.) can detect the activity of several MMPs including MMP-1, 2, 3, 7, 8, 9, 13, and 14. This kit uses a 5-FAM/QXL™ 520 fluorescence resonance energy transfer (FRET) peptide as an MMP substrate. In the intact FRET peptide, the fluorescence of 5-FAM is quenched by QXL™ 520. Upon cleavage into two separate fragments by MMPs, the fluorescence of 5-FAM is recovered, and can be monitored at excitation/emission wavelengths=490 nm/520 nm. The assays are performed in a convenient 96-well or 384-well microplate format.

First: Cn1nc(C(=O)NCc2ccc(C(=O)O)cc2)cc1-c1ccc2[nH]c(-c3cccnc3)cc2c1
Second: O=C(NCc1ccncc1)c1cc(-c2ccc3[nH]c(-c4ccncc4)cc3c2)ccn1 [4-(2-Pyridin-4-yl-1H-indol-5-yl)-pyridine-2-carboxylic acid (pyridin-4-ylmethyl)-amide]
The IC50 of the first is 21-fold lower: 3 nM for the first, 62 nM for the second.

Going from `Cc1noc(-c2cc3cc(-c4nc(C(=O)NCc5ccoc5)[nH]c4C)ccc3[nH]2)n1` to `Cc1noc(-c2cc3cc(-c4nc(C(=O)NCc5nccs5)[nH]c4C)ccc3[nH]2)n1` [5-methyl-4-[2-(3-methyl-1,2,4-oxadiazol-5-yl)-1H-indol-5-yl]-N-(1,3-thiazol-2-ylmethyl)-1H-imidazole-2-carboxamide], the IC50 falls from 3 nM to 2 nM (1.5-fold). The second is the more potent here.

`Cc1noc(-c2cc3cc(-c4cc(C(=O)NCc5nccs5)nn4C)ccc3[nH]2)n1` [1-methyl-5-[2-(3-methyl-1,2,4-oxadiazol-5-yl)-1H-indol-5-yl]-N-(1,3-thiazol-2-ylmethyl)-1H-pyrazole-3-carboxamide] and `Cc1noc(-c2cc3cc(-c4cc(C(=O)NCc5cscn5)nn4C)ccc3[nH]2)n1` [1-methyl-5-[2-(3-methyl-1,2,4-oxadiazol-5-yl)-1H-indol-5-yl]-N-(1,3-thiazol-4-ylmethyl)-1H-pyrazole-3-carboxamide] are within 1.5-fold of each other in IC50: 73 nM for the first, 94 nM for the second.

Compared with `Cc1noc(-c2cc3cc(-c4cc(C(=O)NCc5cncs5)nn4C)ccc3[nH]2)n1` [1-methyl-5-[2-(3-methyl-1,2,4-oxadiazol-5-yl)-1H-indol-5-yl]-N-(1,3-thiazol-5-ylmethyl)-1H-pyrazole-3-carboxamide], `Cc1noc(-c2cc3cc(-c4cc(C(=O)NCc5ccnn5C)nn4C)ccc3[nH]2)n1` [1-methyl-5-[2-(3-methyl-1,2,4-oxadiazol-5-yl)-1H-indol-5-yl]-N-[(1-methyl-1H-pyrazol-5-yl)methyl]-1H-pyrazole-3-carboxamide] is 12-fold higher in IC50: 10 nM for the first, 125 nM for the second.

First: Cc1noc(-c2cc3cc(-c4cc(C(=O)NCC5CCOCC5)nn4C)ccc3[nH]2)n1 [1-methyl-5-[2-(3-methyl-1,2,4-oxadiazol-5-yl)-1H-indol-5-yl]-N-(tetrahydro-2H-pyran-4-ylmethyl)-1H-pyrazole-3-carboxamide]
Second: Cc1noc(-c2cc3cc(-c4nc(C(=O)NCC5CCOCC5)[nH]c4C)ccc3[nH]2)n1 [5-methyl-4-[2-(3-methyl-1,2,4-oxadiazol-5-yl)-1H-indol-5-yl]-N-(tetrahydro-2H-pyran-4-ylmethyl)-1H-imidazole-2-carboxamide]
The IC50 of the first is 110-fold higher: 116 nM for the first, 1.1 nM for the second. The second is the more potent here.

First: Cc1noc(-c2cc3cc(-c4cc(C(=O)NCc5ccn(C)n5)nn4C)ccc3[nH]2)n1 [1-methyl-5-[2-(3-methyl-1,2,4-oxadiazol-5-yl)-1H-indol-5-yl]-N-[(1-methyl-1H-pyrazol-3-yl)methyl]-1H-pyrazole-3-carboxamide]
Second: Cc1noc(-c2cc3cc(-c4cc(C(=O)NCc5cnn(C)c5)nn4C)ccc3[nH]2)n1 [1-methyl-5-[2-(3-methyl-1,2,4-oxadiazol-5-yl)-1H-indol-5-yl]-N-[(1-methyl-1H-pyrazol-4-yl)methyl]-1H-pyrazole-3-carboxamide]
The IC50 of the first is 18-fold higher: 185 nM for the first, 10 nM for the second. The second is the more potent here.

Going from `Cc1noc(-c2cc3cc(-c4cc(C(=O)NCc5cc(C)on5)nn4C)ccc3[nH]2)n1` [1-methyl-N-[(5-methylisoxazol-3-yl)methyl]-5-[2-(3-methyl-1,2,4-oxadiazol-5-yl)-1H-indol-5-yl]-1H-pyrazole-3-carboxamide] to `Cc1noc(-c2cc3cc(-c4nc(C(N)=O)[nH]c4C)ccc3[nH]2)n1` [5-methyl-4-[2-(3-methyl-1,2,4-oxadiazol-5-yl)-1H-indol-5-yl]-1H-imidazole-2-carboxamide], the IC50 falls from 24 nM to 10 nM (2.4-fold). The second is the more potent here.

With `CCOC(=O)c1cc2cc(-c3nc(C(=O)OCC)[nH]c3C)ccc2[nH]1` [5-(2-Ethoxycarbonyl-5-methyl-1H-imidazol-4-yl)-1H-indole-2-carboxylic acid ethyl ester] the IC50 was 39 nM.
